Assay results published in US11869191B2, “System and method for tissue viability screening” (THE REGENTS OF THE UNIVERSITY OF CALIFORNIA, priority 2019, dated 2024).

Tested on: pre-implantation mouse embryos
Assay: Inhibition of glycolysis, phasor-FLIM of NADH lifetime in embryos
Format: cell-based
Details: 1 mM, early blastocyst stage embryos; g value vs control p-value=3.88E-09
Method: Embryos were placed in 25 μl microdroplets of KSOMaa (Invitrogen) with the appropriate inhibitors covered in mineral oil (Sigma). Both of the two chemical inhibitors, rotenone and antimycin A cocktail (R&A) and 2-Deoxyglucose (2DeoxyG) were dissolved in KSOMaa. For R&A, the inhibitor was prepared to perform dose dependence measurements for a final concentration of 100 nM and 500 nM. For 2DeoxyG, the inhibitor has a final concentration of 1 mM. KSOMaa was used as a solvent and culture media for the control group and treatment group embryos.
Fluorescence lifetime images of the pre-implantation embryos were acquired on Zeiss LSM710 (Carl Zeiss, Jena, Germany), a multi-photon microscope coupled with a Ti: Sapphire laser (Spectra-Physics Mai Tai, Mountain View, CA) with 80 MHz repetition rate. […] A dichroic filter at 690 nm was used to separate the fluorescence signal from the laser light. And the emission signal was split with 496 nm LP filter and detected in two channels using a band pass filter 460/80 and a 540/50 filter. […] FLIM calibration of the system was performed by measuring the known lifetime of a fluorophore coumarin 6 (dissolved in ethanol), which has a known fluorescence lifetime of T=2.5 ns(37, 38). […] FLIM data were acquired and processed by the SimFCS software developed at the Laboratory of Fluorescence Dynamics (LFD). […]

O=CC[C@@H](O)[C@H](O)[C@H](O)CO [2DeoxyG, 2-Deoxy-D-Glucose]
phasor-FLIM lifetime distribution (free/bound NADH) compared to controls: shifted the phasor-FLIM distribution to longer lifetime
